Test results: patent US20150174194A1, “METHODS FOR TREATING LIVER TRANSPLANT RECIPIENTS” (AbbVie Inc., priority 2013, published 2015)

How the values were obtained:
[1] = human, in vivo
Text: The Example summarizes the management of concentrations of the immunosuppressants, tacrolimus (TAC) and cyclosporine (CSA) during the treatment.

[2] = Immunosuppressant blood concentrations in liver transplant recipients co-dosed with 3D; assay type: in vivo, human
Protocol: Patients (n=34) on stable TAC or CSA therapy, at least 12 months post-LT, fibrosis stage <F2, received 3D +RBV for 24 weeks. When co-dosed with 3D, it was recommended that the prestudy total CSA daily dose be reduced to one-fifth and given QD. For TAC, a dose of 0.5 mg/7 days or 0.2 mg/3 days was recommended. Subsequent dose and dosing frequency modifications in TAC were made based on the individual TAC levels. Observed CSA trough concentrations (Ctrough) were summarized for CSA recipients (n=5) while TAC data (n=29) were interrogated further to profile on-study TAC Ctroughs. A nonlinear mixed effects model was used to characterize TAC concentration-time profiles using NONMEM software. A one compartment pharmacokinetic (PK) model with first order oral absorption and between subject variability on apparent clearance was used to describe the TAC data. The model estimated TAC PK parameters were used to predict TAC concentration-time profiles in order to evaluate TAC dosing strategies when co-dosed with 3D.

[3] = co-dosed with 3D, TAC dose 0.2-1 mg, CSA dose 25-75 mg, liver transplant recipients

Structure (SMILES): C=CC[C@@H]1/C=C(\C)C[C@H](C)C[C@H](OC)[C@H]2O[C@@](O)(C(=O)C(=O)N3CCCC[C@H]3C(=O)O[C@H](/C(C)=C/[C@@H]3CC[C@@H](O)[C@H](OC)C3)[C@H](C)[C@@H](O)CC1=O)[C@H](C)C[C@@H]2OC [TAC, tacrolimus]
- Increase in concentration 24 hours after co-dosing with 3D [1]: 17 fold
- Concentrations with recommended dose modifications ([2]; LT recipients with GT1 HCV infection receiving 3D): within the therapeutic range
- Blood concentration, interquartile range (IQR) [2, 3]: 3.3 to 6.6 ng/mL
- Blood concentration, median [2, 3]: 4.6 ng/mL
